Measurements taken from ChEMBL document CHEMBL5126616, “Therapeutic and Effective CURE-PRO Molecules for E3 Ligase-Mediated Targeted Protein Degradation” (ACS Med Chem Lett, 2022).

molecular target: T1, Protein cereblon/Bromodomain-containing protein 4 (Homo sapiens) (UniProt O60885+Q96SW2); assay: PROTAC activity at CRBN/BRD4 (unknown origin) assessed as BRD4 degradation in presence of (1S,4R,5R,6S)-N-((2-(2,6-dioxopiperidin-3-yl)-1,3-dioxoisoindolin-4-yl)methyl)-5,6- dihydroxy bicyclo[2.2.1]heptane-2-carboxamide (CRB-N8066) by Western blot analysis; assay type: protein assay; design: concentration or dose not given beside the values
T1 sequence (Q96SW2 whole entry, looked up, other chains not shown): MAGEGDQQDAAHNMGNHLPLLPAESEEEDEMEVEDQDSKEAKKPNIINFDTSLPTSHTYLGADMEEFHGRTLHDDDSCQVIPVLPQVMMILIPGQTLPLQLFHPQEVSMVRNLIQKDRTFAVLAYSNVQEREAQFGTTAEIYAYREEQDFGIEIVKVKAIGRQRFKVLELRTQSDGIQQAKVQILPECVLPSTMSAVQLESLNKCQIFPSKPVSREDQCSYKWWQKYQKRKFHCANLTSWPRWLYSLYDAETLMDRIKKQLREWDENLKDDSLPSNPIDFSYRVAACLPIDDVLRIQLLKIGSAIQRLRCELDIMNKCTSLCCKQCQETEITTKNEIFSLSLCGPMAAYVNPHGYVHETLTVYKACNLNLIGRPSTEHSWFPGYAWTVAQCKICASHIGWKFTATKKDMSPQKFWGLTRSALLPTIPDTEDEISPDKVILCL

**Q.** With `COc1ccc2c(c1)C(c1ccc(Cl)cc1)=N[C@@H](CC(=O)NCCCCCNC(=O)c1cccc(B(O)O)c1)c1nnc(C)n1-2` as the compound, how does the Activity read?
**A.** 30%

**Q.** How did the Activity turn out when `COc1ccc2c(c1)C(c1ccc(Cl)cc1)=N[C@@H](CC(=O)NCCCCNC(=O)c1ccc(B(O)O)cc1)c1nnc(C)n1-2` was run?
**A.** 30%

**Q.** `COc1ccc2c(c1)C(c1ccc(Cl)cc1)=N[C@@H](CC(=O)NCCNC(=O)/C=C/c1ccc(B(O)O)cc1)c1nnc(C)n1-2` was tested. Which Activity did it give?
**A.** 30%

**Q.** How did the Activity turn out when `CCNC(=O)C[C@@H]1N=C(c2ccc(Cl)cc2)c2cc(OCCCCC(=O)Nc3cccc(B(O)O)c3)ccc2-n2c(C)nnc21` was run?
**A.** 30%

**Q.** For `COc1ccc2c(c1)C(c1ccc(Cl)cc1)=N[C@@H](CC(=O)NCCCNC(=O)c1cccc(B(O)O)c1)c1nnc(C)n1-2`, which Activity is on record?
**A.** 30%

**Q.** Which Activity does the source give for `COc1ccc2c(c1)C(c1ccc(Cl)cc1)=N[C@@H](CC(=O)NCCNC(=O)/C=C/c1cccc(B(O)O)c1)c1nnc(C)n1-2` here?
**A.** 30%

**Q.** How did the Activity turn out when `COc1ccc2c(c1)C(c1ccc(Cl)cc1)=N[C@@H](CC(=O)NCCCCCNC(=O)c1ccc(B(O)O)cc1)c1nnc(C)n1-2` was run?
**A.** 30%

molecular target: T1, Protein cereblon/Bromodomain-containing protein 4 (Homo sapiens); assay: PROTAC activity at CRBN/BRD4 (unknown origin) assessed as BRD4 degradation in presence of N-((2-(2,6-dioxopiperidin-3-yl)-1,3-dioxoisoindolin-4-yl)methyl)-2,3- dihydroxy benzamide (CRB-N8047) by Western blot analysis; assay type: protein assay; design: concentration or dose not given beside the values

**Q.** With `COc1ccc2c(c1)C(c1ccc(Cl)cc1)=N[C@@H](CC(=O)NCCc1ccc(B(O)O)cc1)c1nnc(C)n1-2` as the compound, how does the Activity read?
**A.** 30%

**Q.** How did the Activity turn out when `COc1ccc2c(c1)C(c1ccc(Cl)cc1)=N[C@@H](CC(=O)NCc1ccc(B(O)O)cc1)c1nnc(C)n1-2` was run?
**A.** 30%

**Q.** Which Activity does the source give for `COc1ccc2c(c1)C(c1ccc(Cl)cc1)=N[C@@H](CC(=O)NCCCCNC(=O)c1ccc(B(O)O)cc1)c1nnc(C)n1-2` here?
**A.** 30%

**Q.** `COc1ccc2c(c1)C(c1ccc(Cl)cc1)=N[C@@H](CC(=O)NCCNC(=O)/C=C/c1ccc(B(O)O)cc1)c1nnc(C)n1-2` was tested. Which Activity did it give?
**A.** 30%

**Q.** With `COc1ccc2c(c1)C(c1ccc(Cl)cc1)=N[C@@H](CC(=O)NCCCNC(=O)c1cccc(B(O)O)c1)c1nnc(C)n1-2` as the compound, how does the Activity read?
**A.** 30%

**Q.** `COc1ccc2c(c1)C(c1ccc(Cl)cc1)=N[C@@H](CC(=O)NCCNC(=O)/C=C/c1cccc(B(O)O)c1)c1nnc(C)n1-2` was tested. Which Activity did it give?
**A.** 30%

**Q.** With `COc1ccc2c(c1)C(c1ccc(Cl)cc1)=N[C@@H](CC(=O)NCc1cccc(B(O)O)c1)c1nnc(C)n1-2` as the compound, how does the Activity read?
**A.** 30%

molecular target: T1, Protein cereblon/Bromodomain-containing protein 4 (Homo sapiens); assay: PROTAC activity at CRBN/BRD4 (unknown origin) assessed as BRD4 degradation in presence of N-((2-(2,6-dioxopiperidin-3-yl)-1,3-dioxoisoindolin-4-yl)methyl)-3,4- dihydroxy benzamide (CRB-N8046) by Western blot analysis; assay type: protein assay; design: concentration or dose not given beside the values

**Q.** For `COc1ccc2c(c1)C(c1ccc(Cl)cc1)=N[C@@H](CC(=O)NCCCCCNC(=O)c1cccc(B(O)O)c1)c1nnc(C)n1-2`, which Activity is on record?
**A.** 30%

**Q.** `COc1ccc2c(c1)C(c1ccc(Cl)cc1)=N[C@@H](CC(=O)NCCNC(=O)/C=C/c1ccc(B(O)O)cc1)c1nnc(C)n1-2` was tested. Which Activity did it give?
**A.** 30%

**Q.** Which Activity does the source give for `CCNC(=O)C[C@@H]1N=C(c2ccc(Cl)cc2)c2cc(OCCCCC(=O)Nc3cccc(B(O)O)c3)ccc2-n2c(C)nnc21` here?
**A.** 30%

**Q.** `COc1ccc2c(c1)C(c1ccc(Cl)cc1)=N[C@@H](CC(=O)NCCCNC(=O)c1cccc(B(O)O)c1)c1nnc(C)n1-2` was tested. Which Activity did it give?
**A.** 30%

**Q.** For `COc1ccc2c(c1)C(c1ccc(Cl)cc1)=N[C@@H](CC(=O)NCc1cccc(B(O)O)c1)c1nnc(C)n1-2`, which Activity is on record?
**A.** 30%
